Experimental data: ChEMBL document CHEMBL4507287, “Data for DCP probe MRL-650” (2021)

Experiments:
[1] = species on record: Rattus norvegicus; details: Compound concentration 10.0 uM
[2] = molecular target: Aurora kinase A (Homo sapiens) (UniProt O14965); details: Compound concentration 1000.0 nM
[3] = molecular target: BDNF/NT-3 growth factors receptor (Homo sapiens) (UniProt Q16620); details: Compound concentration 1000.0 nM
[4] = molecular target: Serine/threonine-protein kinase mTOR (Homo sapiens) (UniProt P42345); details: Compound concentration 1000.0 nM
[5] = molecular target: Serine/threonine-protein kinase LATS2 (Homo sapiens) (UniProt Q9NRM7); details: Compound concentration 1000.0 nM
[6] = molecular target: Mitogen-activated protein kinase kinase kinase kinase 2 (Homo sapiens) (UniProt Q12851); details: Compound concentration 1000.0 nM
[7] = molecular target: Dual specificity mitogen-activated protein kinase kinase 5 (Homo sapiens) (UniProt Q13163); details: Compound concentration 1000.0 nM
[8] = molecular target: Aurora kinase B (Homo sapiens) (UniProt Q96GD4); details: Compound concentration 1000.0 nM
[9] = tested on: Tyrosine-protein kinase ABL1 (Homo sapiens), P00519 [H396P]; details: Compound concentration 1000.0 nM
[10] = molecular target: Mitogen-activated protein kinase kinase kinase 20 (Homo sapiens) (UniProt Q9NYL2); details: Compound concentration 1000.0 nM
[11] = tested on: Receptor-type tyrosine-protein kinase FLT3 (Homo sapiens), P36888 [D835H]; details: Compound concentration 1000.0 nM
[12] = molecular target: Tyrosine-protein kinase Blk (Homo sapiens) (UniProt P51451); details: Compound concentration 1000.0 nM
[13] = molecular target: Mitogen-activated protein kinase 1 (Homo sapiens) (UniProt P28482); details: Compound concentration 1000.0 nM
[14] = molecular target: Serine/threonine-protein kinase WNK1 (Homo sapiens) (UniProt Q9H4A3); details: Compound concentration 1000.0 nM
[15] = molecular target: Tyrosine-protein kinase ABL1 (Homo sapiens) (UniProt P00519); details: Compound concentration 1000.0 nM
[16] = molecular target: Ribosomal protein S6 kinase alpha-4 (Homo sapiens) (UniProt O75676); details: Compound concentration 1000.0 nM
[17] = molecular target: Mitogen-activated protein kinase 15 (Homo sapiens) (UniProt Q8TD08); details: Compound concentration 1000.0 nM
[18] = molecular target: Dual specificity mitogen-activated protein kinase kinase 2 (Homo sapiens) (UniProt P36507); details: Compound concentration 1000.0 nM
[19] = tested on: Epidermal growth factor receptor (Homo sapiens), P00533 [L858R]; details: Compound concentration 1000.0 nM
[20] = molecular target: GABA-A receptor; anion channel (Rattus norvegicus) (UniProt O09028+P15431+P18506+P18508+P19969+P20236+P23574+P23576+P28471+P28473+P30191+P62813+P63079+P63138+Q91ZM7+Q9ES14); details: Compound concentration 10.0 uM
[21] = molecular target: Tyrosine-protein kinase ITK/TSK (Homo sapiens) (UniProt Q08881); details: Compound concentration 1000.0 nM
[22] = molecular target: Tyrosine-protein kinase Srms (Homo sapiens) (UniProt Q9H3Y6); details: Compound concentration 1000.0 nM
[23] = molecular target: Calcium/calmodulin-dependent protein kinase type 1D (Homo sapiens) (UniProt Q8IU85); details: Compound concentration 1000.0 nM
[24] = molecular target: Serine/threonine-protein kinase WNK2 (Homo sapiens) (UniProt Q9Y3S1); details: Compound concentration 1000.0 nM
[25] = molecular target: Mitogen-activated protein kinase kinase kinase 10 (Homo sapiens) (UniProt Q02779); details: Compound concentration 1000.0 nM
[26] = molecular target: Protein kinase C delta type (Homo sapiens) (UniProt Q05655); details: Compound concentration 1000.0 nM
[27] = molecular target: Serine/threonine-protein kinase DCLK3 (Homo sapiens) (UniProt Q9C098); details: Compound concentration 1000.0 nM
[28] = molecular target: Activin receptor type-1B (Homo sapiens) (UniProt P36896); details: Compound concentration 1000.0 nM
[29] = molecular target: Phosphatidylinositol 3-kinase C2 domain-containing subunit gamma (Homo sapiens) (UniProt O75747); details: Compound concentration 1000.0 nM
[30] = tested on: Receptor-type tyrosine-protein kinase FLT3 (Homo sapiens), P36888 [N841I]; details: Compound concentration 1000.0 nM
[31] = tested on: Tyrosine-protein kinase ABL1 (Homo sapiens), P00519 [T315I]; details: Compound concentration 1000.0 nM
[32] = tested on: Epidermal growth factor receptor (Homo sapiens), P00533 [UNDEFINED MUTATION]; details: Compound concentration 1000.0 nM
[33] = molecular target: Megakaryocyte-associated tyrosine-protein kinase (Homo sapiens) (UniProt P42679); details: Compound concentration 1000.0 nM
[34] = molecular target: Serine/threonine-protein kinase SIK2 (Homo sapiens) (UniProt Q9H0K1); details: Compound concentration 1000.0 nM
[35] = molecular target: Kappa-type opioid receptor (Homo sapiens) (UniProt P41145); details: Compound concentration 10.0 uM
[36] = molecular target: Serine/threonine-protein kinase tousled-like 2 (Homo sapiens) (UniProt Q86UE8); details: Compound concentration 1000.0 nM
[37] = molecular target: NUAK family SNF1-like kinase 1 (Homo sapiens) (UniProt O60285); details: Compound concentration 1000.0 nM
[38] = molecular target: Phosphatidylinositol 4,5-bisphosphate 3-kinase catalytic subunit alpha isoform (Homo sapiens) (UniProt P42336); details: Compound concentration 1000.0 nM
[39] = molecular target: Serine/threonine-protein kinase D2 (Homo sapiens) (UniProt Q9BZL6); details: Compound concentration 1000.0 nM
[40] = molecular target: Mitogen-activated protein kinase kinase kinase 19 (Homo sapiens) (UniProt Q56UN5); details: Compound concentration 1000.0 nM
[41] = molecular target: Phosphorylase b kinase regulatory subunit alpha, liver isoform (Homo sapiens) (UniProt P46019); details: Compound concentration 1000.0 nM
[42] = molecular target: G protein-coupled receptor kinase 3 (Homo sapiens) (UniProt P35626); details: Compound concentration 1000.0 nM
[43] = molecular target: Serine/threonine-protein kinase ULK1 (Homo sapiens) (UniProt O75385); details: Compound concentration 1000.0 nM
[44] = molecular target: Phosphatidylinositol 3-kinase catalytic subunit type 3 (Homo sapiens) (UniProt Q8NEB9); details: Compound concentration 1000.0 nM

Chain of Mitogen-activated protein kinase kinase kinase 19 (Homo sapiens) (Q56UN5 whole entry, canonical isoform): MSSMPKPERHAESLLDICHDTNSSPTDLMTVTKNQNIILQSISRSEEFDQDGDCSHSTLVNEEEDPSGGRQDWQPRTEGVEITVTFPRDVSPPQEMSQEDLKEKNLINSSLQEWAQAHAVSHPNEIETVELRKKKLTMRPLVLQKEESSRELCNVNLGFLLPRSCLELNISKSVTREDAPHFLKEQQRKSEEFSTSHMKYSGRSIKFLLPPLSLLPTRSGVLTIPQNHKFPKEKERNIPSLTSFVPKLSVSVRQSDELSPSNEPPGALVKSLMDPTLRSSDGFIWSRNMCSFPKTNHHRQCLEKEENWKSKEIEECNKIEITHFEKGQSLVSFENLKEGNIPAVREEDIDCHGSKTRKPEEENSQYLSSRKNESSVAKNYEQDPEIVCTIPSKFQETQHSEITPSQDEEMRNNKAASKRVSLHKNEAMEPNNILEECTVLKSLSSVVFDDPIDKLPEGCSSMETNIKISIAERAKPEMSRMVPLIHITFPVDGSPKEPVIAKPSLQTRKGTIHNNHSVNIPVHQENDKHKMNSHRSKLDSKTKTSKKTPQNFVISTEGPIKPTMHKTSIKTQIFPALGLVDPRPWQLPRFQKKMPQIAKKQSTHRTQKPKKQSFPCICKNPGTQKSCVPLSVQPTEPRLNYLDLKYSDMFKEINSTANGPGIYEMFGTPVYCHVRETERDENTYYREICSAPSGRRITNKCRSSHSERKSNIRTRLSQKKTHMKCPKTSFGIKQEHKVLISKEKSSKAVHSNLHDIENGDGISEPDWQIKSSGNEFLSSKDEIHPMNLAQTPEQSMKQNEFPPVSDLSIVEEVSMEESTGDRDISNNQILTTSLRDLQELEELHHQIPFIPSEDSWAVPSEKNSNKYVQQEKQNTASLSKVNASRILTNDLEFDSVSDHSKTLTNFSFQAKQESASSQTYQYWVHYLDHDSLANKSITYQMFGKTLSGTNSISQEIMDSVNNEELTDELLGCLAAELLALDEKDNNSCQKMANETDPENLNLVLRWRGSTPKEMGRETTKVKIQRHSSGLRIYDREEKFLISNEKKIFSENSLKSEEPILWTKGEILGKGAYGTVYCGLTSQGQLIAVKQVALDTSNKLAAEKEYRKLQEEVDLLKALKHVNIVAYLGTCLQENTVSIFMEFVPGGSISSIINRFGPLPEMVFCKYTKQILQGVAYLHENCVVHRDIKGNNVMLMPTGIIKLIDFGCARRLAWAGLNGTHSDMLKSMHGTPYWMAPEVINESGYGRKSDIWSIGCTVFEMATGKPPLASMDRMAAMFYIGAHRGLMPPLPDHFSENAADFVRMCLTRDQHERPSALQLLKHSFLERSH
Chain of Serine/threonine-protein kinase SIK2 (Homo sapiens) (Q9H0K1 whole entry, looked up): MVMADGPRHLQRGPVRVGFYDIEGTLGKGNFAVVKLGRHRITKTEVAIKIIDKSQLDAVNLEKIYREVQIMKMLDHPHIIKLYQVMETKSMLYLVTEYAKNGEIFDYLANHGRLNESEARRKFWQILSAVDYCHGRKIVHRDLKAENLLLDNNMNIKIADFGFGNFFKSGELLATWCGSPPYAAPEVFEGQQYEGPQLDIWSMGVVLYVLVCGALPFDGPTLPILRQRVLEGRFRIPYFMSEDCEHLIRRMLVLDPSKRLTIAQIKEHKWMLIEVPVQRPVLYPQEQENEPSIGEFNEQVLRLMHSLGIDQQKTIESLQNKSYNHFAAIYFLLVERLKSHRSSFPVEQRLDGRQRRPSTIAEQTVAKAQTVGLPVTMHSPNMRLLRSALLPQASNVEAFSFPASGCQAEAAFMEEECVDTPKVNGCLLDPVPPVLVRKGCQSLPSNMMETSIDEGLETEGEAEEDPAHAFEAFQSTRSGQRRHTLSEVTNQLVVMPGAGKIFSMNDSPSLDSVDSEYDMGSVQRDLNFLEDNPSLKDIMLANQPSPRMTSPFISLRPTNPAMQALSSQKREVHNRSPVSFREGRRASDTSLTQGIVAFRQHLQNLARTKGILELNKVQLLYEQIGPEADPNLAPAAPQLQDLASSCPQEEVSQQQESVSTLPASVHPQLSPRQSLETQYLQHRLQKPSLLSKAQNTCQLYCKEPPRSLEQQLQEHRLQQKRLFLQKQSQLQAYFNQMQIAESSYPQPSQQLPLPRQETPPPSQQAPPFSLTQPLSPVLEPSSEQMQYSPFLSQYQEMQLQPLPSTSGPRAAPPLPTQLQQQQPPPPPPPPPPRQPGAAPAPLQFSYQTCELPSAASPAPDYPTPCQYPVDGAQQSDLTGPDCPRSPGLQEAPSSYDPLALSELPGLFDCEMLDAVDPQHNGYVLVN
Chain of Serine/threonine-protein kinase WNK2 (Homo sapiens) (Q9Y3S1 whole entry): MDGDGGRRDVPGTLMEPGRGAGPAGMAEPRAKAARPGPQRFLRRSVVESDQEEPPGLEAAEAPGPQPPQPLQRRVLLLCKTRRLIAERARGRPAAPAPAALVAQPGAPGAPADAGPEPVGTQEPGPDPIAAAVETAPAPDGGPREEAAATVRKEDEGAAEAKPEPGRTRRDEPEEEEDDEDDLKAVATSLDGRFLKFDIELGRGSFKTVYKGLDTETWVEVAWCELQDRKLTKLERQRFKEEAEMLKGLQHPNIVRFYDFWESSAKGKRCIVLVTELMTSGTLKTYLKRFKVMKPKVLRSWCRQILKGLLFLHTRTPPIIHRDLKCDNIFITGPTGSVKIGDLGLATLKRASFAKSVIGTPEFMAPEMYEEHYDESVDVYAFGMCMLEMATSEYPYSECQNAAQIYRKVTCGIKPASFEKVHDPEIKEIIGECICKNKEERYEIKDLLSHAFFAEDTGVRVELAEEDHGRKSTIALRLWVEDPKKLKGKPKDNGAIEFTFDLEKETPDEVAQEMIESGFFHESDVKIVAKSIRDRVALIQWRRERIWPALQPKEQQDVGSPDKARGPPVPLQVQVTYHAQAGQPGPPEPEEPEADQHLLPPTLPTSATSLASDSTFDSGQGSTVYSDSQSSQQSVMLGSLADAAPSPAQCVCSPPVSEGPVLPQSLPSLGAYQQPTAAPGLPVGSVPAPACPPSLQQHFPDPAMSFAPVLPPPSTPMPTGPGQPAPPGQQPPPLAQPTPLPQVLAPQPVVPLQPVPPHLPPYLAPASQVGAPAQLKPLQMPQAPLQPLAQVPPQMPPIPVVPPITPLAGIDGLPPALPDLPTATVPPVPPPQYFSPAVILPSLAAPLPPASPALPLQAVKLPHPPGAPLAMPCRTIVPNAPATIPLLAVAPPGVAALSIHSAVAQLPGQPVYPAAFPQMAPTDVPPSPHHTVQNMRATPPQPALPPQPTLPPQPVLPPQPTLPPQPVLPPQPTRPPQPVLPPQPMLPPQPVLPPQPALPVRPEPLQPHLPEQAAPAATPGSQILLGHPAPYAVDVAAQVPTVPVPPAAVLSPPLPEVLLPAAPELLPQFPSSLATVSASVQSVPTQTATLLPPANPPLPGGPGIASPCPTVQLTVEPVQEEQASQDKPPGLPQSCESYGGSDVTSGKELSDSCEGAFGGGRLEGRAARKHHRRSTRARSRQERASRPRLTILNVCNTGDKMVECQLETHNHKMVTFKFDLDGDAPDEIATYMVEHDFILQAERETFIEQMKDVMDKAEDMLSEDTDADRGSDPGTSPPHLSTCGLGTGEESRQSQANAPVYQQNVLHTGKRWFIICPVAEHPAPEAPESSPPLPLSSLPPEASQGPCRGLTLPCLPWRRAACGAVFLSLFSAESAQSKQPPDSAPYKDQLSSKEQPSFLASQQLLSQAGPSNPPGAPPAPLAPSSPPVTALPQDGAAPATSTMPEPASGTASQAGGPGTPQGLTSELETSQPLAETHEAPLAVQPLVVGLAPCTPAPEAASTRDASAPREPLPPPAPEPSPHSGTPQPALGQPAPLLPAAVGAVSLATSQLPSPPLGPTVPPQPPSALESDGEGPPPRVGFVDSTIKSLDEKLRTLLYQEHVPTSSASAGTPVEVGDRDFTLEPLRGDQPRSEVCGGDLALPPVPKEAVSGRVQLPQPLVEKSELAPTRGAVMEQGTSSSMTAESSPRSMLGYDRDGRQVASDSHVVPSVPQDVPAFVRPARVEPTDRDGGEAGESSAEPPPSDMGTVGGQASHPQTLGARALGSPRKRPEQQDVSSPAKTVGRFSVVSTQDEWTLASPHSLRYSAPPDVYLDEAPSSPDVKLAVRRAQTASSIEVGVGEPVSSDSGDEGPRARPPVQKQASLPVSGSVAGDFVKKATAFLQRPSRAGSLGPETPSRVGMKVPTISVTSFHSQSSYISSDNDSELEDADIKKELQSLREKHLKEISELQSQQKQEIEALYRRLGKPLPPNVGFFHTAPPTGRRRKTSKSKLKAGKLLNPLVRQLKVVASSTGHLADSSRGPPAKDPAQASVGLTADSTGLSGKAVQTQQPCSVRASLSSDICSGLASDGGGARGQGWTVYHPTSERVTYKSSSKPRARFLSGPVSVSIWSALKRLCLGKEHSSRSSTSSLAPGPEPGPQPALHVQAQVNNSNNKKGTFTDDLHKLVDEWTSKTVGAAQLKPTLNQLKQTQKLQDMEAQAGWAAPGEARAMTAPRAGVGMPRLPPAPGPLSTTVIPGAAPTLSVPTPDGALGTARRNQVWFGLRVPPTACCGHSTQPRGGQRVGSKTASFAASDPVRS
Chain of Calcium/calmodulin-dependent protein kinase type 1D (Homo sapiens) (Q8IU85 whole entry, looked up): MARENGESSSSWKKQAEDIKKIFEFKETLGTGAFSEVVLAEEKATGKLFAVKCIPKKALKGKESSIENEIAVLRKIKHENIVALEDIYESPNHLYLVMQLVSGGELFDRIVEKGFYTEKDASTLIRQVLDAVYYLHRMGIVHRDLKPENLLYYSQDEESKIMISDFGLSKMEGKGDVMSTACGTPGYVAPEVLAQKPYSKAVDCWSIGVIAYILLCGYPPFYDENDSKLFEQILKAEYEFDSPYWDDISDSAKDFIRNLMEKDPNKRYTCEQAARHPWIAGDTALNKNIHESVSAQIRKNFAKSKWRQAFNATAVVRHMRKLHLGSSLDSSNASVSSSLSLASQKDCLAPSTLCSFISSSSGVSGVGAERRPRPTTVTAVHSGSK

SMILES: CC(=O)Nc1c(C(C)=O)c(=O)n(C)c2nc(-c3ccc(Cl)cc3Cl)c(-c3ccc(Cl)cc3)cc12 [NAPHTHYRIDINONE]
- inhibition [1]: 82.7%
- residual activity [2]: 100%
- residual activity [3]: 100%
- residual activity [4]: 100%
- residual activity [5]: 100%
- residual activity [6]: 92%
- residual activity [7]: 94%
- residual activity [8]: 92%
- residual activity [9]: 100%
- residual activity [10]: 100%
- residual activity [11]: 100%
- residual activity [12]: 100%
- residual activity [13]: 100%
- residual activity [14]: 100%
- residual activity [15]: 85%
- residual activity [16]: 100%
- residual activity [17]: 100%
- residual activity [18]: 100%
- residual activity [19]: 100%
- inhibition [20]: 30.2%
- residual activity [21]: 100%
- residual activity [22]: 78%
- residual activity [23]: 100%
- residual activity [24]: 95%
- residual activity [25]: 100%
- residual activity [26]: 100%
- residual activity [27]: 100%
- residual activity [28]: 94%
- residual activity [29]: 63%
- residual activity [30]: 100%
- residual activity [31]: 100%
- residual activity [32]: 86%
- residual activity [33]: 100%
- residual activity [34]: 100%
- inhibition [35]: 7.96%
- residual activity [36]: 100%
- residual activity [37]: 100%
- residual activity [38]: 100%
- residual activity [39]: 100%
- residual activity [40]: 100%
- residual activity [41]: 100%
- residual activity [42]: 99%
- residual activity [43]: 66%
- residual activity [44]: 100%

SMILES: CC(=O)c1c(NS(C)(=O)=O)c2cc(-c3ccc(Cl)cc3)c(-c3ccc(Cl)cc3Cl)nc2n(C)c1=O [MRL-CB1-NC]
- inhibition [1]: 36.9%
- residual activity [2]: 87%
- residual activity [3]: 94%
- residual activity [4]: 100%
- residual activity [5]: 78%
- residual activity [6]: 82%
- residual activity [7]: 80%
- residual activity [8]: 100%
- residual activity [9]: 100%
- residual activity [10]: 92%
- residual activity [11]: 96%
- residual activity [12]: 100%
- residual activity [13]: 100%
- residual activity [14]: 88%
- residual activity [15]: 91%
- residual activity [16]: 87%
- residual activity [17]: 100%
- residual activity [18]: 100%
- residual activity [19]: 98%
- inhibition [20]: 60.9%
- residual activity [21]: 97%
- residual activity [22]: 71%
- residual activity [23]: 100%
- residual activity [24]: 62%
- residual activity [25]: 99%
- residual activity [26]: 98%
- residual activity [27]: 100%
- residual activity [28]: 92%
- residual activity [29]: 91%
- residual activity [30]: 100%
- residual activity [31]: 93%
- residual activity [32]: 90%
- residual activity [33]: 83%
- residual activity [34]: 100%
- inhibition [35]: 2.99%
- residual activity [36]: 99%
- residual activity [37]: 86%
- residual activity [38]: 100%
- residual activity [39]: 88%
- residual activity [40]: 85%
- residual activity [41]: 100%
- residual activity [42]: 100%
- residual activity [43]: 67%
- residual activity [44]: 93%
